The record followed here is patent US8349827B2, “Substituted dipyrido-pyrimido-diazepine and benzo-pyrido-pyrimido compounds” (ArQule, Inc., priority 2009, dated 2013).

Structures are written as SMILES.

One experiment has as its system DLD-1. Nature of the experiment: MTS assay, DLD-1 cells. In kind it is cell-based. The note with it: Homo sapiens, 72 hours. The method, then: (§1) Cells were maintained at 37° C., 5% CO2 in DMEM media supplemented with 1% fetal bovine serum, penicillin/streptomycin and fungizone (Invitrogen). Cells were seeded into 96-well tissue culture plates at 3000 per well and cultured at 37° C. for 18 hours. Test compounds were dissolved and diluted to 300× in DMSO then diluted 1:40 in DMEM. Cells were incubated with test compounds for 72 hours followed by incubation with tetrazolium compound (3-(4,5-dimethylthiazol-2-yl)-5-(3-carboxymethoxyphenyl)-2-(4-sulfophenyl)-2H-tetrazolium, inner salt; MTS) and the electron coupling reagent, phenazine methosulfate (PMS) for 4 hours. […] The ability of compounds to inhibit cell growth in this assay is correlated with the reduction of dehydrogenase enzyme activity found in metabolically active cells. The measurement of the absorbance of the formazan was assessed using an ENVISION™ (Perkin Elmer) microplate reader at 492 nm. The calculated IC50 value is the concentration of the test compound that causes a 50% decrease in the absorbance.
(In general: Tetrazolium dyes change colour on reduction, which living cells bring about.)

In the next experiment the test system is KATO III. Nature of the experiment: MTS assay, KATO III cells. The note with it: Homo sapiens, 72 hours. The experiment is classed as cell-based. Here is the method: as §1
The subject of another experiment is MDA-MB-231. The experiment in a line: MTS assay, MDA-MB-231 cells. In kind it is cell-based. The note with it: Homo sapiens, 72 hours. Here is the method:
as §1

In a further experiment the test system is NCI-H1299. The experiment in a line: MTS assay, NCI-H1299 cells. In kind it is cell-based. The conditions noted are these: Homo sapiens, 72 hours. Here is the method: as §1
Another experiment has as its system PACA-2. The experiment in a line: MTS assay, PACA-2 cells. The experiment is classed as cell-based. The conditions noted are these: 72 hours. Here is the method:
as §1

Another experiment relates to PC-3. The experiment in a line: MTS assay, PC-3 cells. The experiment is classed as cell-based. The conditions noted are these: Homo sapiens, 72 hours. Here is the method: as §1
The target in the next experiment is ABL T315I (Homo sapiens, UniProt P00519, T315I). Nature of the experiment: ABL Kinase Activity Assay (Elisa), ABL T315I. The experiment is classed as biochemical. The note with it: ATP 100 μM, read-out: Abl(T315I) Enzymetic assay (Elisa) % inhibition. The method, then:
(§2) ABL Kinase Activity Assay
(§3) The disclosed compounds were assayed for their ability to inhibit the activity of ABL kinase. Nunc Maxisorb plates were coated with streptavidin by overnight incubation with 100 μL per well of 1 μg/ml streptavidin in DPBS. Prior to the experiment, the plates were washed with TBST (3×200 μL) and blocked for at least 3 hours by adding 150 μL of 5% BSA/TBST. The plates were washed with TBST (3×200 μL/well) and left dry immediately before the capture step.
(§4) The disclosed test compounds and controls (Gleevec) were prepared using the following assay buffer@10× desired final concentration (50 mM Tris pH 7.0, 0.02 mg/ml BSA, 10 mM MgCl2, 0.1 mM Na3VO4, 1 mM EGTA, 0.01% NP-40, 1 mM DTT in 10% glycerol/water). In a reaction plate, 5 μl test article (or control) and 30 μl ABL or ABL T315I (0.089 nM final concentration, in the above buffer) were added rapidly. The plate was incubated for 20 minutes. To the reaction plate was added ATP (100 μM final concentration) and AblTide (128 nM final concentration) in a volume of 15 μl. The plate was incubated at room temperature for one hour.
(§5) From the reaction plate, 40 μl was transferred to the streptavidin coated plate. The capture plate was incubated at room temperature for 30 minutes, then washed 3× with TBST. To the capture plate was added 100 μL/well of cell signaling anti-phospho tyrosine at a dilution of 1:3000 in 2% BSA/TBST. The plate was incubated for two hours at room temperature then washed 3× with TBST. To the capture plate was added 100 μL/well of alkaline phosphatase tagged goat anti mouse antibody at a dilution of 1:4000 in 2% BSA/TBST. The plate was incubated for one hour at room temperature then washed 3× with TBST.
(§6) The fluorescent readout was initiated by the addition of 100 μl/well of Attophos reagent (6 mg/10 mL). The reading was done on the Perkin Elmer Envision system.

The target of the next experiment is ABL (Homo sapiens, UniProt P00519). The experiment in a line: ABL Kinase Activity Assay (Elisa), ABL. In kind it is biochemical. The conditions noted are these: ATP 100 μM, read-out: Abl Enzymetic assay (Elisa) % inhibition. The method, then: as §2, §3, §4, §5, §6

For `FC(F)(F)c1ccccc1CNc1ncc2c(n1)-c1cccnc1Nc1cnccc1-2` [Example 3, N-[2-(trifluoromethyl)benzyl]-9H-dipyrido[2,3-b:4′,3′-f]pyrimido[4,5-d]azepin-2-amine], the inhibition (in general, the percentage by which the read-out fell short of the control) at 10 µM with DLD-1 is less than 50%; in the experiment with KATO III, less than 50%; with MDA-MB-231, less than 50%; with NCI-H1299, 50 to 79%; with PACA-2, less than 50%; with PC-3, less than 50%. The figures for the inhibition at 10 µM at ABL T315I and on ABL were 80 to 100% and 50 to 79%, respectively.

For `CCCC(C)Nc1ncc2c(n1)-c1cccnc1Nc1cnccc1-2` (stereo not drawn) [Example 5, N-(1-methylbutyl)-9H-dipyrido[2,3-b:4′,3′-f]pyrimido[4,5-d]azepin-2-amine], the inhibition at 10 µM with DLD-1 was less than 50%; with KATO III it was 50 to 79%; in the experiment with MDA-MB-231, less than 50%; in the experiment with NCI-H1299 it was less than 50%; in the experiment with PACA-2, less than 50%; in the experiment on PC-3, less than 50%. Further, the inhibition at 10 µM on ABL T315I and on ABL was 80 to 100% each time.

For the compound `CCCCNc1ncc2c(n1)-c1cccnc1Nc1cnccc1-2` [Example 7, N-butyl-9H-dipyrido[2,3-b:4′,3′-f]pyrimido[4,5-d]azepin-2-amine], the inhibition at 10 µM in the experiment with DLD-1 was less than 50%; in the experiment on KATO III, 50 to 79%; with MDA-MB-231, 50 to 79%; in the experiment with NCI-H1299 it was less than 50%; in the experiment on PACA-2, less than 50%; in the experiment with PC-3, less than 50%. In addition, the inhibition at 10 µM on ABL T315I and at ABL was 80 to 100% in each case.

In the case of `Clc1ccccc1CNc1ncc2c(n1)-c1cccnc1Nc1cnccc1-2` [Example 8, N-(2-chlorobenzyl)-9H-dipyrido[2,3-b:4′,3′-f]pyrimido[4,5-d]azepin-2-amine], the inhibition at 10 µM in the experiment on DLD-1, in the experiment on KATO III, in the experiment on MDA-MB-231, in the experiment with NCI-H1299, in the experiment with PACA-2 and in the experiment with PC-3 was 80 to 100% each time. For the same compound, the inhibition at 10 µM was in the range of 80 to 100% at ABL T315I and 50 to 79% at ABL.

On to `Fc1ccc(CNc2ncc3c(n2)-c2cccnc2Nc2cnccc2-3)cc1` [Example 11, N-(4-fluorobenzyl)-9H-dipyrido[2,3-b:4′,3′-f]pyrimido[4,5-d]azepin-2-amine], for which the inhibition at 10 µM in the experiment with DLD-1, in the experiment with KATO III, with MDA-MB-231, with NCI-H1299, in the experiment with PACA-2 and in the experiment on PC-3 was 80 to 100% each time. For the same compound, the inhibition at 10 µM at ABL T315I and at ABL was 80 to 100% in each case.

Take `Clc1ccc(CNc2ncc3c(n2)-c2cccnc2Nc2cnccc2-3)cc1` [Example 13, N-(4-chlorobenzyl)-9H-dipyrido[2,3-b:4′,3′-f]pyrimido[4,5-d]azepin-2-amine]: the inhibition at 10 µM with DLD-1 is 50 to 79%; in the experiment with KATO III, 50 to 79%; with MDA-MB-231 it was less than 50%; with NCI-H1299, 50 to 79%; with PACA-2 it was less than 50%; in the experiment with PC-3 it was less than 50%. Further, the inhibition at 10 µM lay within 80 to 100% on ABL T315I and 50 to 79% at ABL.

With `COc1ccc(CCNc2ncc3c(n2)-c2cccnc2Nc2cnccc2-3)cc1OC` [Example 14, N-[2-(3,4-dimethoxyphenyl)ethyl]-9H-dipyrido[2,3-b:4′,3′-f]pyrimido[4,5-d]azepin-2-amine], the inhibition at 10 µM in the experiment on DLD-1, in the experiment on KATO III, in the experiment with MDA-MB-231, with NCI-H1299, with PACA-2 and in the experiment with PC-3 was less than 50% in each case. Also, the inhibition at 10 µM at ABL T315I and at ABL was 80 to 100% in each case.

Take `Cc1ccccc1CCNc1ncc2c(n1)-c1cccnc1Nc1cnccc1-2` [Example 15, N-[2-(2-methylphenyl)ethyl]-9H-dipyrido[2,3-b:4′,3′-f]pyrimido[4,5-d]azepin-2-amine]: the inhibition at 10 µM was less than 50% in the experiment with DLD-1; 50 to 79% with KATO III; less than 50% in the experiment on MDA-MB-231; less than 50% with NCI-H1299; less than 50% in the experiment with PACA-2; less than 50% in the experiment with PC-3. Besides, the inhibition at 10 µM at ABL T315I and at ABL was 80 to 100% throughout.

Take `FC(F)(F)c1ccc(CNc2ncc3c(n2)-c2cccnc2Nc2cnccc2-3)cc1` [Example 21, N-[4-(trifluoromethyl)benzyl]-9H-dipyrido[2,3-b:4′,3′-f]pyrimido[4,5-d]azepin-2-amine]: the inhibition at 10 µM in the experiment on DLD-1, in the experiment on KATO III, with MDA-MB-231, with NCI-H1299, with PACA-2 and in the experiment with PC-3 was 80 to 100% each time. Moreover, the inhibition at 10 µM on ABL T315I and on ABL was less than 50% throughout.

Consider `COc1cc(CCNc2ncc3c(n2)-c2cccnc2Nc2cnccc2-3)cc(OC)c1` [Example 38, N-[2-(3,5-dimethoxyphenyl)ethyl]-9H-dipyrido[2,3-b:4′,3′-f]pyrimido[4,5-d]azepin-2-amine], for which the inhibition at 10 µM with DLD-1 was less than 50%; in the experiment on KATO III, less than 50%; in the experiment on PACA-2 it was less than 50%; in the experiment with PC-3, less than 50%; on ABL T315I it was less than 50%; on ABL it was 50 to 79%.

Consider `c1ccc(-c2cccc(CNc3ncc4c(n3)-c3cccnc3Nc3cnccc3-4)c2)cc1` [Example 45, N-(biphenyl-3-ylmethyl)-9H-dipyrido[2,3-b:4′,3′-f]pyrimido[4,5-d]azepin-2-amine], for which the inhibition at 10 µM in the experiment on DLD-1 is 80 to 100%; in the experiment on KATO III it was 80 to 100%; in the experiment with NCI-H1299 it was 50 to 79%; in the experiment with PACA-2, 80 to 100%; in the experiment on PC-3 it was less than 50%; on ABL T315I, 80 to 100%. Moreover, at ABL, the inhibition at 10 µM was 80 to 100%.

With `Brc1ccc(CCNc2ncc3c(n2)-c2cccnc2Nc2cnccc2-3)cc1` [Example 46, N-[2-(4-bromophenyl)ethyl]-9H-dipyrido[2,3-b:4′,3′-f]pyrimido[4,5-d]azepin-2-amine], the inhibition at 10 µM in the experiment with DLD-1 was 50 to 79%; with KATO III, 50 to 79%; with NCI-H1299, less than 50%; in the experiment with PACA-2 it was less than 50%; in the experiment with PC-3 it was less than 50%; on ABL T315I, 80 to 100%. Further, at ABL, the inhibition at 10 µM was in the range of 80 to 100%.

Turning to `CN(C)CCCCCNc1ncc2c(n1)-c1cccnc1Nc1cnccc1-2` [Example 48, N′-9H-dipyrido[2,3-b:4′,3′-f]pyrimido[4,5-d]azepin-2-yl-N,N-dimethylpentane-1,5-diamine], the inhibition at 10 µM in the experiment with DLD-1 was less than 50%; in the experiment on KATO III, less than 50%; with MDA-MB-231, 50 to 79%; in the experiment with PACA-2 it was less than 50%; in the experiment with PC-3 it was 50 to 79%; on ABL T315I, 80 to 100%. Further, the inhibition at 10 µM on ABL lay within 80 to 100%.

Consider `Nc1ncc2c(n1)-c1cccnc1Nc1ccccc1-2` [Example 62, 9H-pyrido[2,3-b]pyrimido[4,5-d][1]benzazepin-2-amine], for which the inhibition at 10 µM with KATO III is less than 50%; with MDA-MB-231, less than 50%; in the experiment on PACA-2, less than 50%; in the experiment with PC-3 it was less than 50%; on ABL T315I, 50 to 79%; on ABL, 50 to 79%.
